Measurements from ChEMBL document CHEMBL6127104, “Prorocentin-5: A Cytotoxic Polyketide from the Benthic Marine Dinoflagellate Prorocentrum lima” (J Nat Prod, 2024).
pIC50: −log10 of the molar value. Calls of active or inactive are those of the source. No cut-off for these calls is given here.

Tests used:
[1] = system: HCT-116; experiment: Induction of cell cycle arrest in human HCT-116 cells assessed as accumulation of cells at G0/G1 phase at 0.1 uM incubated for 24 hrs by flow cytometric analysis (reference value: 90.2 %); type: functional
[2] = system: HepG2; experiment: Induction of apoptosis in human HepG2 cells assessed as late apoptotic cells at 0.1 uM incubated for 24 hrs by Annexin V-FITC/PI staining based flow cytometric analysis (reference value: 2.05 %); type: functional
[3] = system: N2a; experiment: Induction of cell cycle arrest in mouse Neuro2a cells assessed as accumulation of cells at G2/M phase at 0.1 uM incubated for 24 hrs by flow cytometric analysis (reference value: 8.0 %); type: functional
[4] = system: HepG2; experiment: Induction of cell cycle arrest in human HepG2 cells assessed as accumulation of cells at G0/G1 phase at 0.1 uM incubated for 24 hrs by flow cytometric analysis (reference value: 66.4 %); type: functional
[5] = system: HCT-116; experiment: Induction of cell cycle arrest in human HCT-116 cells assessed as accumulation of cells at G2/M phase at 0.1 uM incubated for 24 hrs by flow cytometric analysis (reference value: 30.6 %); type: functional
[6] = system: N2a; experiment: Induction of apoptosis in mouse Neuro2a cells assessed as necrotic cells at 1 uM incubated for 24 hrs by Annexin V-FITC/PI staining based analysis (reference value: 4.33 %); type: functional
[7] = system: HCT-116; experiment: Induction of apoptosis in human HCT-116 cells assessed as viable cells at 1 uM incubated for 24 hrs by Annexin V-FITC/PI staining based flow cytometric analysis (reference value: 90.50 %); type: functional; conditions: read-out: Activity
[8] = system: HepG2; experiment: Cytotoxicity against human HepG2 cells assessed as inhibition of cell proliferation AT 0.1 to 10 uM incubated for 24 hrs by MTT assay; type: functional, cell-based; conditions: dose 0.1-10 µM
[9] = system: N2a; experiment: Induction of cell cycle arrest in mouse Neuro2a cells assessed as accumulation of cells at S phase at 0.1 uM incubated for 24 hrs by flow cytometric analysis (reference value: 30.5 %); type: functional
[10] = system: HepG2; experiment: Induction of cell cycle arrest in human HepG2 cells assessed as accumulation of cells at S phase at 0.1 uM incubated for 24 hrs by flow cytometric analysis (reference value: 27.8 %); type: functional
[11] = system: HepG2; experiment: Induction of apoptosis in human HepG2 cells assessed as fold increase in early apoptotic cells at 1 uM incubated for 24 hrs by Annexin V-FITC/PI staining based flow cytometric analysis; type: functional
[12] = system: HepG2; experiment: Induction of apoptosis in human HepG2 cells assessed as early apoptotic cells at 1 uM incubated for 24 hrs by Annexin V-FITC/PI staining based flow cytometric analysis (reference value: 4.85 %); type: functional
[13] = system: N2a; experiment: Induction of apoptosis in mouse Neuro2a cells assessed as viable cells at 1 uM incubated for 24 hrs by Annexin V-FITC/PI staining based analysis (reference value: 91.70 %); type: functional; conditions: read-out: Activity
[14] = system: N2a; experiment: Induction of apoptosis in mouse Neuro2a cells assessed as fold increase in early apoptotic cells at 1 uM incubated for 24 hrs by Annexin V-FITC/PI staining based analysis; type: functional
[15] = system: HepG2; experiment: Induction of apoptosis in human HepG2 cells assessed as early apoptotic cells at 0.1 uM incubated for 24 hrs by Annexin V-FITC/PI staining based flow cytometric analysis (reference value: 4.85 %); type: functional
[16] = system: HepG2; experiment: Induction of apoptosis in human HepG2 cells assessed as viable cells at 1 uM incubated for 24 hrs by Annexin V-FITC/PI staining based flow cytometric analysis (reference value: 90.08 %); type: functional; conditions: read-out: Activity
[17] = system: HCT-116; experiment: Cytotoxicity against human HCT-116 cells assessed as inhibition of cell proliferation incubated for 24 hrs by MTT assay; type: functional, cell-based; conditions: HCT-116, 24 h
[18] = system: N2a; experiment: Induction of apoptosis in mouse Neuro2a cells assessed as early apoptotic cells at 1 uM incubated for 24 hrs by Annexin V-FITC/PI staining based analysis (reference value: 3.17 %); type: functional
[19] = system: HCT-116; experiment: Cytotoxicity against human HCT-116 cells assessed as inhibition of cell proliferation at 0.1 to 10 uM incubated for 24 hrs by MTT assay; type: functional, cell-based; conditions: dose 0.1-10 µM
[20] = system: N2a; experiment: Induction of apoptosis in mouse Neuro2a cells assessed as necrotic cells at 0.1 uM incubated for 24 hrs by Annexin V-FITC/PI staining based analysis (reference value: 4.33 %); type: functional
[21] = system: HCT-116; experiment: Induction of apoptosis in human HCT-116 cells assessed as viable cells at 0.1 uM incubated for 24 hrs by Annexin V-FITC/PI staining based flow cytometric analysis (reference value: 90.50 %); type: functional; conditions: read-out: Activity
[22] = system: HepG2; experiment: Induction of apoptosis in human HepG2 cells assessed as necrotic cells at 0.1 uM incubated for 24 hrs by Annexin V-FITC/PI staining based flow cytometric analysis (reference value: 3.02 %); type: functional
[23] = system: N2a; experiment: Cytotoxicity against mouse Neuro2a cells assessed as inhibition of cell proliferation incubated for 24 hrs by MTT assay; type: functional, cell-based
[24] = system: N2a; experiment: Cytotoxicity against mouse Neuro2a cells assessed as inhibition of cell proliferation at 0.1 to 10 uM incubated for 24 hrs by MTT assay; type: functional, cell-based; conditions: dose 0.1-10 µM
[25] = system: N2a; experiment: Induction of cell cycle arrest in mouse Neuro2a cells assessed as accumulation of cells at G2/M phase at 1 uM incubated for 24 hrs by flow cytometric analysis (reference value: 8.0 %); type: functional
[26] = system: HCT-116; experiment: Induction of apoptosis in human HCT-116 cells assessed as late apoptotic cells at 0.1 uM incubated for 24 hrs by Annexin V-FITC/PI staining based flow cytometric analysis (reference value: 6.15 %); type: functional
[27] = system: HepG2; experiment: Induction of apoptosis in human HepG2 cells assessed as necrotic cells at 1 uM incubated for 24 hrs by Annexin V-FITC/PI staining based flow cytometric analysis (reference value: 3.02 %); type: functional
[28] = system: N2a; experiment: Induction of apoptosis in mouse Neuro2a cells assessed as late apoptotic cells at 0.1 uM incubated for 24 hrs by Annexin V-FITC/PI staining based analysis (reference value: 0.81 %); type: functional
[29] = system: HepG2; experiment: Induction of cell cycle arrest in human HepG2 cells assessed as accumulation of cells at G2/M phase at 0.1 uM incubated for 24 hrs by flow cytometric analysis (reference value: 6.7 %); type: functional
[30] = system: HCT-116; experiment: Induction of cell cycle arrest in human HCT-116 cells assessed as accumulation of cells at S phase at 0.1 uM incubated for 24 hrs by flow cytometric analysis (reference value: 19.2 %); type: functional
[31] = system: HepG2; experiment: Induction of cell cycle arrest in human HepG2 cells assessed as accumulation of cells at S phase at 1 uM incubated for 24 hrs by flow cytometric analysis (reference value: 27.8 %); type: functional
[32] = system: N2a; experiment: Induction of cell cycle arrest in mouse Neuro2a cells assessed as accumulation of cells at G0/G1 phase at 0.1 uM incubated for 24 hrs by flow cytometric analysis (reference value: 61.5 %); type: functional
[33] = system: HepG2; experiment: Induction of apoptosis in human HepG2 cells assessed as viable cells at 0.1 uM incubated for 24 hrs by Annexin V-FITC/PI staining based flow cytometric analysis (reference value: 90.08 %); type: functional; conditions: read-out: Activity
[34] = system: HCT-116; experiment: Induction of cell cycle arrest in human HCT-116 cells assessed as accumulation of cells at G2/M phase at 1 uM incubated for 24 hrs by flow cytometric analysis (reference value: 30.6 %); type: functional
[35] = system: HCT-116; experiment: Induction of apoptosis in human HCT-116 cells assessed as late apoptotic cells at 1 uM incubated for 24 hrs by Annexin V-FITC/PI staining based flow cytometric analysis (reference value: 6.15 %); type: functional
[36] = system: HCT-116; experiment: Induction of apoptosis in human HCT-116 cells assessed as fold increase in late apoptotic cells at 1 uM incubated for 24 hrs by Annexin V-FITC/PI staining based analysis; type: functional
[37] = system: HCT-116; experiment: Induction of apoptosis in human HCT-116 cells assessed as necrotic cells at 0.1 uM incubated for 24 hrs by Annexin V-FITC/PI staining based flow cytometric analysis (reference value: 1.45 %); type: functional
[38] = system: N2a; experiment: Induction of apoptosis in mouse Neuro2a cells assessed as early apoptotic cells at 0.1 uM incubated for 24 hrs by Annexin V-FITC/PI staining based analysis (reference value: 3.17 %); type: functional
[39] = system: N2a; experiment: Induction of cell cycle arrest in mouse Neuro2a cells assessed as accumulation of cells at S phase at 1 uM incubated for 24 hrs by flow cytometric analysis (reference value: 30.5 %); type: functional
[40] = system: N2a; experiment: Induction of apoptosis in mouse Neuro2a cells assessed as fold increase in late apoptotic cells at 1 uM incubated for 24 hrs by Annexin V-FITC/PI staining based analysis; type: functional
[41] = system: N2a; experiment: Induction of cell cycle arrest in mouse Neuro2a cells assessed as accumulation of cells at G0/G1 phase at 1 uM incubated for 24 hrs by flow cytometric analysis (reference value: 61.5 %); type: functional
[42] = system: HepG2; experiment: Induction of cell cycle arrest in human HepG2 cells assessed as accumulation of cells at G2/M phase at 1 uM incubated for 24 hrs by flow cytometric analysis (reference value: 27.8 %); type: functional
[43] = system: N2a; experiment: Induction of apoptosis in mouse Neuro2a cells assessed as viable cells at 0.1 uM incubated for 24 hrs by Annexin V-FITC/PI staining based analysis (reference value: 91.70 %); type: functional; conditions: read-out: Activity
[44] = system: HCT-116; experiment: Induction of apoptosis in human HCT-116 cells assessed as early apoptotic cells at 0.1 uM incubated for 24 hrs by Annexin V-FITC/PI staining based flow cytometric analysis (reference value: 1.90 %); type: functional
[45] = system: HepG2; experiment: Induction of cell cycle arrest in human HepG2 cells assessed as accumulation of cells at G0/G1 phase at 1 uM incubated for 24 hrs by flow cytometric analysis (reference value: 66.4 %); type: functional
[46] = system: HCT-116; experiment: Induction of cell cycle arrest in human HCT-116 cells assessed as accumulation of cells at S phase at 1 uM incubated for 24 hrs by flow cytometric analysis (reference value: 19.2 %); type: functional
[47] = system: HCT-116; experiment: Induction of cell cycle arrest in human HCT-116 cells assessed as accumulation of cells at G0/G1 phase at 1 uM incubated for 24 hrs by flow cytometric analysis (reference value: 90.2 %); type: functional
[48] = system: HCT-116; experiment: Induction of apoptosis in human HCT-116 cells assessed as fold increase in early apoptotic cells at 1 uM incubated for 24 hrs by Annexin V-FITC/PI staining based analysis; type: functional
[49] = system: HCT-116; experiment: Induction of apoptosis in human HCT-116 cells assessed as necrotic cells at 1 uM incubated for 24 hrs by Annexin V-FITC/PI staining based flow cytometric analysis (reference value: 1.45 %); type: functional
[50] = system: HepG2; experiment: Induction of apoptosis in human HepG2 cells assessed as late apoptotic cells at 1 uM incubated for 24 hrs by Annexin V-FITC/PI staining based flow cytometric analysis (reference value: 2.05 %); type: functional
[51] = system: N2a; experiment: Induction of apoptosis in mouse Neuro2a cells assessed as late apoptotic cells at 1 uM incubated for 24 hrs by Annexin V-FITC/PI staining based analysis (reference value: 0.81 %); type: functional
[52] = system: HepG2; experiment: Induction of apoptosis in human HepG2 cells assessed as fold increase in late apoptotic cells at 1 uM incubated for 24 hrs by Annexin V-FITC/PI staining based flow cytometric analysis; type: functional
[53] = system: HCT-116; experiment: Induction of apoptosis in human HCT-116 cells assessed as early apoptotic cells at 1 uM incubated for 24 hrs by Annexin V-FITC/PI staining based flow cytometric analysis (reference value: 1.90 %); type: functional

CC(=O)CCCCC[C@@H](O)[C@H](C)C[C@H](C)CC[C@@H]1O[C@H]1C[C@@H]1CC[C@@H](/C=C/C=C/C[C@H](O)C[C@H]2C=C[C@@H](C=C(C)C)O2)O1
Activity [1]: 48.4% | Activity [2]: 15.02% | Activity [3]: 10.4% | Activity [4]: 54.5% | Activity [5]: 31.9% | Activity [6]: 2.85% | viability at 1 µM [7]: 58.5% | Activity [8]: Active | Activity [9]: 38.1% | Activity [10]: 36% | fold change (FC) [11]: 5.8 | Activity [12]: 27.87% | viability at 1 µM [13]: 55.1% | fold change (FC) [14]: 5.5 | Activity [15]: 30.92% | viability at 1 µM [16]: 49.8% | pIC50 [17]: 5.36 | Activity [18]: 17.3% | Activity [19]: Active | Activity [20]: 1.16% | viability at 0.1 µM [21]: 75.2% | Activity [22]: 1.88% | pIC50 [23]: 5.55 | Activity [24]: Active | Activity [25]: 13.7% | Activity [26]: 14.55% | Activity [27]: 1.72% | Activity [28]: 7.2% | Activity [29]: 10.5% | Activity [30]: 18.7% | Activity [31]: 34.7% | Activity [32]: 51.5% | viability at 0.1 µM [33]: 52.2% | Activity [34]: 27.1% | Activity [35]: 17.52% | fold change (FC) [36]: 2.9 | Activity [37]: 5.4% | Activity [38]: 15.67% | Activity [39]: 43.1% | fold change (FC) [40]: 30.7 | Activity [41]: 43.2% | Activity [42]: 13% | viability at 0.1 µM [43]: 76% | Activity [44]: 4.9% | Activity [45]: 52.3% | Activity [46]: 26% | Activity [47]: 6.8% | fold change (FC) [48]: 2.7 | Activity [49]: 18.45% | Activity [50]: 20.59% | Activity [51]: 24.75% | fold change (FC) [52]: 10 | Activity [53]: 5.15%
